In patent US10519211B2, “Compounds as peptidic GLP1/glucagon/GIP receptor agonists” (SANOFI, priority 2016, dated 2019):
Numbered stars: 1 amine (or outer) side, 2 acyl side, 3 side chain; on linkers, the order of the positions; unused ones are H or OH. Square brackets hold non-standard residues; d marks the D form. Side chains are listed from the residue outwards. Peptide text beside a SMILES is read from it. * marks the point of attachment. Adipoyl(4R-palmitoylamino) = CCCCCCCCCCCCCCCC(=O)N[C@H](CCC(=O)*)CC(=O)O; γGlu = O=C(O)[C@H](CCC(=O)[*:2])N[*:1]; Palmitoyl = CCCCCCCCCCCCCCCC(=O)*; AEEA = NCCOCCOCC(=O)O; Aib = CC(C)(N)C(=O)O

Columns and labels:
[1] = biological target: T1, human GIP receptor (hGIP-R) (Homo sapiens, UniProt P48546); experiment: cAMP response (HTRF) of HEK-293 cells stably expressing human GIP receptor; format: cell-based; settings: Table 8; cAMP formation
T1 construct: expressed in transfected cells; host or cells: HEK-293
T1 sequence (P48546 22-466): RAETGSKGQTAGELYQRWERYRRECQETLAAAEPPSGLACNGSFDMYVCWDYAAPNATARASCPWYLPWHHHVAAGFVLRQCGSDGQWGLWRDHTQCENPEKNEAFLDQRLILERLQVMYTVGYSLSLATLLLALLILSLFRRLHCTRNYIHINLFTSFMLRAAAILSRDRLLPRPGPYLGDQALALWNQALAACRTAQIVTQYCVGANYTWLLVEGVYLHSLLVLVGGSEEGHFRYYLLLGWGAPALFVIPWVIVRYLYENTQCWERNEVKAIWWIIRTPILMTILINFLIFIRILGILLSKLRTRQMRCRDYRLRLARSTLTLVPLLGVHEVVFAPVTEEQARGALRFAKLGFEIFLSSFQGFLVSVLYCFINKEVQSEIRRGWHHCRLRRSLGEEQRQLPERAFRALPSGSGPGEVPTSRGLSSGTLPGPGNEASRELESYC
Procedure: (§1) cAMP content of cells was determined using a kit from Cisbio Corp. (cat. no. 62AM4PEJ) based on HTRF (Homogenous Time Resolved Fluorescence). For preparation, cells were split into T175 culture flasks and grown overnight to near confluency in medium (DMEM/10% FBS). Medium was then removed and cells washed with PBS lacking calcium and magnesium, followed by proteinase treatment with accutase (Sigma-Aldrich cat. no. A6964). Detached cells were washed and resuspended in assay buffer (1×HBSS; 20 mM HEPES, 0.1% BSA, 2 mM IBMX) and cellular density determined. They were then diluted to 400000 cells/ml and 25 μl-aliquots dispensed into the wells of 96-well plates. For measurement, 25 μl of test compound in assay buffer was added to the wells, followed by incubation for 30 minutes at room temperature.
(§2) Potencies of peptidic compounds at the GLP-1, glucagon and GIP receptors were determined by exposing cells expressing human glucagon receptor (hGlucagon R), human GIP receptor (hGIP-R) or human GLP-1 receptor (hGLP-1 R) to the listed compounds at increasing concentrations and measuring the formed cAMP as described in Methods.

[2] = Solubility assessment (UPLC-UV); format: physicochemical; settings: acetate buffer pH 4.5, 2.7 mg/ml m-cresol (buffer system A), target 10 mg/ml
Procedure: Prior to the solubility measurement of a peptide batch, its purity was determined through UPLC/MS.
Therefore solutions from solid samples were prepared in a buffer systems with a concentration of 10 mg/mL compound based on the previously determined % purity:
Solubility buffer system A) Acetate Buffer pH 4.5, 100 mM sodium acetate trihydrate, 2.7 mg/ml m-Cresol
UPLC-UV was performed after 1 hour of gentle agitation from the supernatant, which was obtained after 15 min of centrifugation at 2500 RCF (relative centrifugal acceleration).
The solubility was determined by the comparison of the UV peak area of 2 μL-injection of a buffered sample diluted 1:10 with a standard curve of a reference peptide with known concentration. The different UV extinction coefficients of sample and reference peptide were calculated based on the different amino acid sequences and considered in the concentration calculation.
Peptide samples were prepared in solubility buffer system A and solubility was assessed as described in Methods.

[3] = Dynamic light scattering (DLS), hydrodynamic radius as surrogate for interaction parameter kD; format: physicochemical
Procedure: For every peptide solution, the hydrodynamic radius Rh and the diffusion constant D (related via the Stokes-Einstein equation) were determined as an average over triplicates. Both parameters were determined at different concentrations (e.g., Rh1 and D1: 1 mg/ml and Rh5 and D5: 5 mg/ml) in the same buffer system. The difference of these parameters between low and high peptide concentration is a surrogate for the DLS interaction parameter kD. Rh5<Rh1 or D5>D1 correspond to kD>0 and therefore to repulsive inter-particle interactions that result in improved physical (or colloidal) stability.
DLS buffer system A) 25 mM acetate buffer pH4.5, 3 mg/mL L-Methionine, 2.7 mg/mL m-cresol, 18 mg/mL Glycerol 85%
DLS Method C: DLS measurements were performed on a DynaPro Plate Reader II (Wyatt Technology, Santa Barbara, Calif., US) and using one of the following black, low volume, and non-treated plates: polystyrene 384 assay plate with clear bottom (Corning, N.Y., US), polystyrene 96 assay plate with clear bottom (Corning, N.Y., US), cyclo olefin polymer (COP) 384 assay plate with clear bottom (Aurora, Mont., US), or polystyrene 384 assay plate with clear bottom (Greiner Bio-One, Germany). The data were processed with the Dynamics software provided by Wyatt Technology. Parameters of the particle size distribution were determined with non-negatively constrained least squares (NNLS) methods using DynaLS algorithms. Measurements were taken at 25° C. with an 830 nm laser light source at an angle of 158°.
The hydrodynamic radius radius Rh of peptide samples was determined at different peptide concentrations (1 mg/ml and 5 mg/ml) in DLS buffer system A using DLS method C as described in Methods as surrogate for the DLS interaction parameter kD.

[4] = Thioflavin T (ThT) assay for physical stability (fibrillation); format: physicochemical; settings: 3 mg/ml, 100 mM acetate pH 4.5 with m-cresol, shaking at 37° C.
Procedure: Investigations were carried out to determine fibrillation tendencies under stress conditions by shaking at 37° C. within Fluoroskan Ascent FL.
For the tests in Fluoroskan Ascent FL, 200 μL sample were placed into a 96 well mictrotiter plate PS, flat bottom, Greiner Fluotrac No. 655076. Plates were sealed with Scotch Tape (Quiagen). Samples were stressed by continuous cycles of 10 s shaking at 960 rpm and 50 s rest period at 37° C. The kinetic was monitored by measuring fluorescence intensity every 20 minutes.
Peptides were diluted in a buffer system to a final concentration of 3 mg/ml. 20 μL of a 10.1 mM ThT solution in H2O were added to 2 mL of peptide solution to receive a final concentration of 100 μM ThT. For each sample eight replicates were tested.
Tht buffer system A) 100 mM Acetate pH 4.5 including m-cresol (100 mM Natriumacetat trihydrat, pH adjustment using 2N CH3COOH, 2.7 mg/mL m-cresol) Tht buffer system B) 100 mM citrate buffer pH 6.0
Lag time in hours in Thioflavin T (ThT) assay of peptide samples was determined in Tht buffer system A as described in Methods.

[5] = Chemical stability assessment (UPLC-UV, relative purity loss); format: physicochemical; settings: 1 mg/ml, 25 mM acetate buffer pH 4.5 with m-cresol (buffer system A)
Procedure: Prior to the chemical stability measurement of a peptide batch, its purity was determined through UPLC/MS. For stability testing the target concentration was 1 mg pure compound/ml. Therefore solutions from solid samples were prepared in a buffer system with a concentration of 1 mg/mL compound based on the previously determined % purity:
Chemical stability buffer system A) 25 mM acetate buffer pH4.5, 3 mg/mL L-Methionine, 2.7 mg/mL m-cresol, 18 mg/mL Glycerol 85%
Peptide solutions were filtered through […] pore size and filled into aliquots under aseptic conditions. At starting point UPLC-UV was performed by injection of 2 μl of the undiluted sample.
For chemical stability testing, aliquots were stored for 28 days at Sand 40° C. After this time course the samples were centrifuged for 15 min at 2500 RCF. Then 2 μl of the undiluted supernatant were analysed with UPLC-UV.
The chemical stability was rated through the relative loss of purity calculated by the equation: [(purity at starting point)−(purity after 28 days at X° C.)]/(purity at starting point)]*100%
The purity is calculated as [(peak area peptide)/(total peak area)]*100%
Peptide samples were prepared in Chemical stability buffer system A and chemical stability was assessed as described in Methods.

[6] = biological target: T2, human GLP-1 receptor (hGLP-1 R) (Homo sapiens, UniProt P43220); experiment: cAMP response (HTRF) of HEK-293 cells stably expressing human GLP-1 receptor; format: cell-based; settings: Table 8; cAMP formation
T2 construct: expressed in transfected cells; host or cells: HEK-293
T2 sequence (P43220 24-463): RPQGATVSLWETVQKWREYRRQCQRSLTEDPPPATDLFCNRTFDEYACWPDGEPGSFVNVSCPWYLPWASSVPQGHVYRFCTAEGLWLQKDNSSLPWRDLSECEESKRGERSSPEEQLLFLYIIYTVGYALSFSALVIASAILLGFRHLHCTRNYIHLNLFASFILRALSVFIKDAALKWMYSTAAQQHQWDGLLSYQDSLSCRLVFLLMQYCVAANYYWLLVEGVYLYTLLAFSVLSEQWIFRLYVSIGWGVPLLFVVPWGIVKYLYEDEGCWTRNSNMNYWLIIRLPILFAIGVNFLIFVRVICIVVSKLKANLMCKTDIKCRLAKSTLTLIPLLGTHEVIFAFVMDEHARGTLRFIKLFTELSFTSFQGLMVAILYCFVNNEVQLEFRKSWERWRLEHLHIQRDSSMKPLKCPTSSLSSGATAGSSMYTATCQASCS
Procedure: as §1, §2

SMILES | EC50 [1] [pM] | solubility at 1 h [2] [µg/mL] | Delta Rh [nm] = Rh5 − Rh1 ([3]; DLS buffer system A pH 4.5) [nm] | Rh1 [nm] c= 1 mg/ml ([3]; hydrodynamic radius, 1 mg/ml, DLS buffer system A pH 4.5, DLS method C, 25° C.) [nm] | Rh5 [nm] c = 5 mg/ml ([3]; hydrodynamic radius, 5 mg/ml, DLS buffer system A pH 4.5, DLS method C, 25° C.) [nm] | Lag time before increase [4] [h] | Chemical stability [relative purity loss 28 days 40° C.] (%) at pH 4.5 [5] [%] | EC50 [6] [pM]
CCCCCCCCCCCCCCCC(=O)NCCOCCOCC(=O)N[C@@H](CCC(=O)N[C@@H](CCC(=O)NCCCC[C@H](NC(=O)[C@H](CC(C)C)NC(=O)[C@H](CCCCN)NC(=O)[C@H](CO)NC(=O)[C@H](CC(C)C)NC(=O)[C@H](CC(=O)O)NC(=O)[C@H](CO)NC(=O)[C@@H](NC(=O)[C@H](Cc1ccccc1)NC(=O)[C@@H](NC(=O)CNC(=O)[C@H](CCC(N)=O)NC(=O)C(C)(C)NC(=O)[C@@H](N)Cc1c[nH]cn1)[C@@H](C)O)[C@@H](C)O)C(=O)N[C@@H](CCC(=O)O)C(=O)N[C@@H](CCC(=O)O)C(=O)N[C@@H](CCC(N)=O)C(=O)N[C@@H](CCCNC(=N)N)C(=O)N[C@@H](CCC(N)=O)C(=O)NC(C)(C)C(=O)N[C@@H](CCC(=O)O)C(=O)N[C@@H](Cc1ccccc1)C(=O)N[C@H](C(=O)N[C@@H](CCC(=O)O)C(=O)N[C@@H](Cc1c[nH]c2ccccc12)C(=O)N[C@@H](CC(C)C)C(=O)N[C@@H](CCCCN)C(=O)N[C@@H](C)C(=O)N[C@H](C)C(=O)NCC(=O)N[C@@H](Cc1c[nH]cn1)C(=O)N1CCC[C@H]1C(=O)N[C@@H](CO)C(=O)NC(C)(C)C(=O)N[C@@H](CCCCN)C(=O)N1CCC[C@H]1C(=O)N1CCC[C@H]1C(=O)N1CCC[C@H]1C(=O)N[C@@H](CCCCN)C(N)=O)[C@@H](C)CC)C(=O)O)C(=O)O [SEQ ID NO: 19, H-Aib-Q-G-T-F-T-S-D-L-S-K-L-K[gGlu-gGlu-AEEA-Palm]-E-E-Q-R-Q-Aib-E-F-I-E-W-L-K-A-dAla-G-H-P-S-Aib-K-P-P-P-K-NH2] (H-H[Aib]QGTFTSDLSKLK([γGlu-γGlu-AEEA-Palmitoyl])EEQRQ[Aib]EFIEWLKA[dA]GHPS[Aib]KPPPK-NH2) | 7.9 | > 9200 | −0.1 | 3.1 | 3.0 | >45 | 6.0 | 
CCCCCCCCCCCCCCCC(=O)N[C@H](CCC(=O)NCCOCCOCC(=O)N[C@@H](CCC(=O)NCCCC[C@H](NC(=O)[C@H](CC(C)C)NC(=O)[C@H](CCCCN)NC(=O)[C@H](CO)NC(=O)[C@H](CC(C)C)NC(=O)[C@H](CC(=O)O)NC(=O)[C@H](CO)NC(=O)[C@@H](NC(=O)[C@H](Cc1ccccc1)NC(=O)[C@@H](NC(=O)CNC(=O)[C@H](CCC(N)=O)NC(=O)C(C)(C)NC(=O)[C@@H](N)Cc1c[nH]cn1)[C@@H](C)O)[C@@H](C)O)C(=O)N[C@@H](CCC(=O)O)C(=O)N[C@@H](CCCCN)C(=O)N[C@@H](CCC(N)=O)C(=O)N[C@@H](CCCNC(=N)N)C(=O)N[C@@H](CCC(N)=O)C(=O)NC(C)(C)C(=O)N[C@@H](CCC(=O)O)C(=O)N[C@@H](Cc1ccccc1)C(=O)N[C@H](C(=O)N[C@@H](CCC(=O)O)C(=O)N[C@@H](Cc1c[nH]c2ccccc12)C(=O)N[C@@H](CC(C)C)C(=O)N[C@@H](CCCCN)C(=O)N[C@@H](C)C(=O)NCC(=O)NCC(=O)N[C@@H](Cc1c[nH]cn1)C(=O)N1CCC[C@H]1C(=O)N[C@@H](CO)C(=O)NC(C)(C)C(=O)N[C@@H](CCCCN)C(=O)N1CCC[C@H]1C(=O)N1CCC[C@H]1C(=O)N1CCC[C@H]1C(=O)N[C@@H](CCCCN)C(N)=O)[C@@H](C)CC)C(=O)O)CC(=O)O [SEQ ID NO: 20, H-Aib-Q-G-T-F-T-S-D-L-S-K-L-K[gGlu-AEEA-gAAA-Palm]-E-K-Q-R-Q-Aib-E-F-I-E-W-L-K-A-G-G-H-P-S-Aib-K-P-P-P-K-NH2] (H-H[Aib]QGTFTSDLSKLK([γGlu-AEEA-Adipoyl(4R-palmitoylamino)])EKQRQ[Aib]EFIEWLKAGGHPS[Aib]KPPPK-NH2) |  |  |  |  |  | >45 |  | 2.4
